The subject of one experiment is human ATM. The conditions noted are these: ref [5] Howes, A. C., Perisic, O. & Williams, R. L. Sci. Adv. 9, eadi8291 (2023); cited from earlier work. An excerpt:
Based on a radiolabeled ATP-based kinase assay, which is the “gold standard” for the quantification of protein kinase activity, we managed to achieve a 30-fold increase in ATM/Tel1 activity (Fig. 1a; Supplementary Fig. S3). This level of activati ...

The subject of a further experiment is ATM/Tel1. The experiment is described as follows: Endogenous activation of ATM/Tel1 in cultured yeast cells. The conditions noted are these: 0.05% MMS added at OD600 ≈ 4, cells collected 60 min later. The format is cell-based, Schizosaccharomyces pombe. As for the experimental part: (§1) Purification of Yeast ATM/Tel1
S. pombe stain CC5060 (h–leu1-32 ura4- D18 kanMX6:nmt1:TAP-tel1)[1] was grown in YPD medium to the stationary phase. 0.05% MMS(MACKLIN)was added at OD600 ≈ 4 and c ells were collected 60 min later. About 100 g cells were harvested, washed, and resuspended in extraction buffer (50 mM HEPES [pH 7.6], 300 mM ammonium sulfate, 0.5 mM EDTA, 5 mM β-ME, 10% (v/v) glycerol, 0.01% (v/v) NP-40 and protease inhibitors), and a whole-cell extraction was prepared as previously described. This whole -cell extract was selectively precipitated in 30-55% ammonium sulfate and resuspended using binding buffer (50 mM HEPES [pH 7.6], 1 mM EDTA, 10 mM ZnCl2, 5 mM β- ME, and protease inhibitors). […] The ATM/Tel1 elution was flash- frozen in liquid nitrogen, and analyzed by SDS-PAGE and EM examination.
(§2) Expression and Purification of full-length CHK2, MRN (Mre11, Rad50-core, Nbs1) The codon-optimized gene fragments for human full- length CHK2, yeast Mre11, Rad50-core (lacking the coiled-coil motif) were cloned into the pET22b vector with a C-terminal 6× His tag and Nbs1 were cloned into the pET22b vector with a C-terminal 6× His tag and a GST tag, and transformed into E. coli BL21(DE3). […] The eluted CHK2 and MRN proteins were flash-frozen in liquid nitrogen and analyzed by SDS-PAGE and EM. […]

A further experiment addresses T1, basal ATM/Tel1 (Schizosaccharomyces pombe, UniProt O74630).
T1 construct: we endogenously purified basal; TAP (N, cleaved yes); made in house; host or cells: Schizosaccharomyces pombe strain CC5060 (TAP-tel1 under the nmt1 promoter)
Description: Surface plasmon resonance, CHK2 immobilized, basal ATM/Tel1. The conditions noted are these: 20 °C, experiment independently repeated three times. The format is binding. As for the experimental part: as §1
(§3) S. pombe stain CC5060 (h–leu1-32 ura4- D18 kanMX6:nmt1:TAP-tel1)[1] was grown in YPD medium to the stationary phase. 0.05% MMS(MACKLIN)was added at OD600 ≈ 4 and c ells were collected 60 min later. About 100 g cells were harvested, washed, and resuspended in extraction buffer (50 mM HEPES [pH 7.6], 300 mM ammonium sulfate, 0.5 mM EDTA, 5 mM β-ME, 10% (v/v) glycerol, 0.01% (v/v) NP-40 and protease inhibitors), and a whole-cell extraction was prepared as previously described. […] The ATM/Tel1 elution was flash- frozen in liquid nitrogen, and analyzed by SDS-PAGE and EM examination.
as §2
(§4) to SDS- PAGE and analyzed by Western blot (WB) using pan- acetylated -Lysine (Rabbit monoclonal, Cat# 9441S, Cell Signaling Technology). and phospho-ATM/ATR substrate (pSQ/pTQ motif, Rabbit monoclonal, Cat# 6966, Cell Signaling Technology) antibodies. […]
A general note: Surface plasmon resonance follows binding to a sensor surface in real time, without labels.

A further experiment has as its target T2, active ATM/Tel1 (Schizosaccharomyces pombe, UniProt O74630).
T2 construct: TAP (N, cleaved yes); made in house; host or cells: Schizosaccharomyces pombe strain CC5060 (TAP-tel1 under the nmt1 promoter), treated with 0.05% MMS
The experiment is described as follows: Surface plasmon resonance, CHK2 immobilized, active ATM/Tel1. Particulars: 20 °C, experiment independently repeated three times. The format is binding. As for the experimental part:
as §1, §3, §2, §4

The next experiment relates to active ATM/Tel1 dimer. Description: Cryo-EM structure of active ATM/Tel1 with substrate peptide. The conditions noted are these: cryo-EM Structure 2, 3.6 Å; active ATM/Tel1 : 329 bp DNA : CHK2 peptide 1:20:200 with AMP-PNP, on ice 1 h. The experiment is classed as binding, Schizosaccharomyces pombe. As for the experimental part:
The affinity chromatography sample of ATM/Tel1 was diluted to final concentrations of 0.05 mg/ml (50 mM HEPES [pH 7.6], 0.01% (v/v) NP- 40, 1 mM EDTA, 10 mM ZnCl 2, 5 mM β- ME, and protease inhibitors). Negative staining was used to evaluate the protein quality. In brief, 3 µl of freshly purified ATM/Tel1 was applied onto copper grids supported by a thin layer of glow - discharged carbon film (Zhongjingkeyi Technology Co., Ltd). After adsorption for 30 s, uranyl acetate (2% w/v) was used for negative staining at room temperature. The negatively stained grids were examined using FEI Talos L120C operated at 120 KeV. […]
The grids were imaged in a Titan Krios cryo-electron microscope (Thermo Fisher Scientific) operated at 300 keV at a magnification of 81,000 × (corresponding to a calibrated sampling of 1.07 Å per pixel). Movies were recorded by EPU with a Gatan K3 Summit direct electron detector, where each movie was composed of 32 individual frames with an exposure time of 3.8 s and a dose rate of 50 electrons per second per Å2. […]
Beam-induced sample motions were corrected using MotionCorr2[3] software, and contrast transfer function (CTF) parameters were estimated using CTFFIND4[4] software. […] All reported resolutions were calculated from gold standard refinement procedures with the FSC = 0.143 criterion implemented in cryoSPARC[5]. […]

T1 sequence (O74630 whole entry): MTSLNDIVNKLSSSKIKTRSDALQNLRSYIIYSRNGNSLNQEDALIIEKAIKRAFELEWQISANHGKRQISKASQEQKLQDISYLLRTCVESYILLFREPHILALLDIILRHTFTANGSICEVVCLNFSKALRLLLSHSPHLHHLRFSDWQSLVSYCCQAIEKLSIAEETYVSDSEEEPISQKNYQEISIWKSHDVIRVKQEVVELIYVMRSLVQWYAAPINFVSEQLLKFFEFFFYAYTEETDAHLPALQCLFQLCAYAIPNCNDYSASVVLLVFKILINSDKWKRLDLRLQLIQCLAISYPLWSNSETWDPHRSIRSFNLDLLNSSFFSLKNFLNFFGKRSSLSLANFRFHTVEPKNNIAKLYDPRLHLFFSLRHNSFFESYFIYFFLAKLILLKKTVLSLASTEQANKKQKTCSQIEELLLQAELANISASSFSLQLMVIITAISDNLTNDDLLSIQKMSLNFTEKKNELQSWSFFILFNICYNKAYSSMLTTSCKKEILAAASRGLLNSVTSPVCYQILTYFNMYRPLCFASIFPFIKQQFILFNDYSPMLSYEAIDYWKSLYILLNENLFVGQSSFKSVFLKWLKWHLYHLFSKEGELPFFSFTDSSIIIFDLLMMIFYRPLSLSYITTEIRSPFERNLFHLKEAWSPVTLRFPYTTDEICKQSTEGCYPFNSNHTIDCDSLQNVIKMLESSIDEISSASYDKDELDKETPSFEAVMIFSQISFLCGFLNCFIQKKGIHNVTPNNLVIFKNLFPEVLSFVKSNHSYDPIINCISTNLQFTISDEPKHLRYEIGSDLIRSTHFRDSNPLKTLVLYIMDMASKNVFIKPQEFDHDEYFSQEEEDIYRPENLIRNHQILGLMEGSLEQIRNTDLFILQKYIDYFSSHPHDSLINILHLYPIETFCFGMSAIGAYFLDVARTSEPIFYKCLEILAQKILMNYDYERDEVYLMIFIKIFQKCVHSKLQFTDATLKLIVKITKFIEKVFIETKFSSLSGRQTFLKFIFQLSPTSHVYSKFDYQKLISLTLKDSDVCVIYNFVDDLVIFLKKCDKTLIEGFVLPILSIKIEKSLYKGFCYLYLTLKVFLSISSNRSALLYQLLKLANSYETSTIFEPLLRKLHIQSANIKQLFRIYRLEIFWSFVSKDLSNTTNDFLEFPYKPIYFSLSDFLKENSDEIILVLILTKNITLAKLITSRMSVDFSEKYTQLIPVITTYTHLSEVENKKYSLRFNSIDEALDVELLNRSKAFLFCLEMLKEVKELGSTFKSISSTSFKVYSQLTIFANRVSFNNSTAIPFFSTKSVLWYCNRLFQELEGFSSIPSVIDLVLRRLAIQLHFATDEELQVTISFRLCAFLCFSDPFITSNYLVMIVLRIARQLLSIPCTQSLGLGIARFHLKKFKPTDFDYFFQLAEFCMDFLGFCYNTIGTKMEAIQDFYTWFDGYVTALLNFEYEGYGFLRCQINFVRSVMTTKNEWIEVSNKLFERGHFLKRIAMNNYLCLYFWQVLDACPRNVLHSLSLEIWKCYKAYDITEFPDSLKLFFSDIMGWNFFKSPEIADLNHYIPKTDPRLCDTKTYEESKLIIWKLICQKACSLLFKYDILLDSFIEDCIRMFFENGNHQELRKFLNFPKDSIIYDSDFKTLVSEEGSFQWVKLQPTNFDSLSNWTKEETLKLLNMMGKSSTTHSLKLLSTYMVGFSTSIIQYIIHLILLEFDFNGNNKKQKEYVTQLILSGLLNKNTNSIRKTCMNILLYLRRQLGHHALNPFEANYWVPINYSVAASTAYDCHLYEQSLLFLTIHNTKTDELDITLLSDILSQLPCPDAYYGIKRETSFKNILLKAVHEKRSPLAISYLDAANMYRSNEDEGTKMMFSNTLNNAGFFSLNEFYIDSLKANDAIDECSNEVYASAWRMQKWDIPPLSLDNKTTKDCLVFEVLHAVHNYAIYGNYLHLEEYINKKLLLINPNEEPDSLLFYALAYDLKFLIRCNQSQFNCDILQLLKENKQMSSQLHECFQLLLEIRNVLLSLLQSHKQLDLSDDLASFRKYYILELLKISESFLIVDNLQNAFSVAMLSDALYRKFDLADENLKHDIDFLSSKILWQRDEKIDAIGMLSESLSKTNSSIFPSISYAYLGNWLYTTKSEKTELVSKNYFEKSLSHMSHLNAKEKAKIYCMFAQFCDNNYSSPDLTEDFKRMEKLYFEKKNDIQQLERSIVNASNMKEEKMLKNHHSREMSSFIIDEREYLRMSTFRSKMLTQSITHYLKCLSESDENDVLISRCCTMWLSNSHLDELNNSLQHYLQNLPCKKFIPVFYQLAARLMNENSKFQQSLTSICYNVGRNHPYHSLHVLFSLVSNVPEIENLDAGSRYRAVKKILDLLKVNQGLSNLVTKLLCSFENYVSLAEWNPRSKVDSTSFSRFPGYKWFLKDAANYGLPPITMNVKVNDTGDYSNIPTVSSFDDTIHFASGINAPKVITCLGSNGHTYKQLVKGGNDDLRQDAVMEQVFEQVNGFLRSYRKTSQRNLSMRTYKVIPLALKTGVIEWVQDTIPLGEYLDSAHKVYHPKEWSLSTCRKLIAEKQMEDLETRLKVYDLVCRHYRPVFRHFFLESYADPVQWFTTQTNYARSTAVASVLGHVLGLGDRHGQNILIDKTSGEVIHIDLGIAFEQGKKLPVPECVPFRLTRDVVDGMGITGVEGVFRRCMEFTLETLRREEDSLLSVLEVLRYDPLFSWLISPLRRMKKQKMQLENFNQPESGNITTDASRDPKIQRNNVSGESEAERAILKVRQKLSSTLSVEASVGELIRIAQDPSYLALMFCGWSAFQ
T2 sequence (O74630 whole entry): as above

Consider `OO` [H2O2], for which, in the experiment on human ATM, the “level of activation of human ATM in vitro compared with the 30-fold activation of ATM/Tel1” value is “comparable”.

As for `COS(C)(=O)=O` [methylmethane sulfonate], the “activation of cellular ATM/Tel1 (in words)” value with ATM/Tel1 is reported as “endogenously activated the cellular ATM/Tel1”.

For “LETVSTQELYSI [CHK2 peptide, 12-residue human CHK2 substrate peptide 63-74, custom-synthesized by Sangon, with an N-terminal NH2 and C-terminal COOH]”, the “reduction of affinity for basal ATM/Tel1 compared to the active state” value at basal ATM/Tel1 (SPR (Supplementary Fig. S7)) was “over 120 fold”. For the same compound, the “binding affinity for basal ATM/Tel1 (in words)” value on basal ATM/Tel1 (SPR (Supplementary Fig. S7b)) is “significantly lower affinity”. At active ATM/Tel1 (SPR (Supplementary Fig. S7)), the “affinity for active ATM/Tel1 relative to full-length CHK2” value is given as “comparable to that of the full-length CHK2”. In addition, the “binding affinity for active ATM/Tel1 (in words)” value at active ATM/Tel1 (SPR (Supplementary Fig. S7a)) is given as “increased affinity in the active state”. Moreover, the “monomers of the active dimer that bind the substrate peptide” value in the experiment with active ATM/Tel1 dimer was “only Mono1, but not Mono2, can bind to the CHK2 peptide”.

(Values after PMC11933327, “Asymmetric activation of dimeric ATM/Tel1 kinase” (Cell Discovery, 2025).)
